Laboratory results reported in the supplement of paper PMC10627819.

Legend:
S. aureus Newman [1] = assay: Bliss interaction score (quartile over a dose matrix) (fitness difference); higher = more antagonism (negative = synergy)
How it was run: (§1)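 The Bliss score subtracts expected fitness, the product of the single-drug fitness values, from observed fitness. Fitness is plate-normalised OD595 at entry into stationary phase, relative to the robust no-drug mean and capped at 1, with single-drug fitness inferred from combinations. Summaries are quartiles over technical, biological and donor/recipient replicates.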

S. pneumoniae D39V [2] = assay: as above
How it was run: as §1

S. aureus DSM 20231 = assay: as above
How it was run: as §1

B. subtilis 168 [3] = assay: as above
How it was run: as §1

S. aureus Newman [4] = assay: fitness (endpoint OD595 vs no drug) (fraction); higher = more growth
How it was run: (§2)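 Fitness was defined as the optical density at the transition into stationary phase relative to the robust mean of no-drug control wells. Values were capped at 1. Cultures were started at OD595 0.01 in 384-well plates (30 µl, or 55 µl for S. pneumoniae) in TSB, LB Lennox or CY at 37 °C. OD595 was recorded every 30 min over 14 h, with the first reading subtracted as background.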

S. pneumoniae D39V [5] = assay: as above
How it was run: as §2

B. subtilis 168 [6] = assay: as above
How it was run: as §2
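Throughout, for Bliss interaction score (quartile over a dose matrix): first quartile when negative (synergy) and third quartile when positive (antagonism).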

CNC(C)C1CCC(N)C(OC2C(N)CC(N)C(OC3OCC(C)(O)C(NC)C3O)C2O)O1 (centres undefined) [Gentamicin] + CC1=C\[C@@H](O)CC(=O)Cc2nc(co2)C(=O)N2CCC=C2C(=O)O[C@H](C(C)C)[C@H](C)/C=C/C(=O)NC\C=C\1 [Virginiamycin M1]
main component drawn
Conditions	Bliss interaction score
B. subtilis 168 [3]	-0.0977
S. aureus DSM 20231	0.094
S. aureus Newman [1]	-0.0365
S. pneumoniae D39V [2]	0.0786

fitness, main component drawn
Conditions	partner 0.0625 µg/mL	partner 0.125 µg/mL	partner 0.25 µg/mL	partner 0.5 µg/mL	partner 1 µg/mL	partner 2 µg/mL
B. subtilis 168 [6], first compound 0.0625 µg/mL	0.895	0.897	0.905	–	–	–
B. subtilis 168 [6], first compound 0.25 µg/mL	0.0328	0.0454	0.0523	–	–	–
S. aureus Newman [4], first compound 0.5 µg/mL	0.959	0.996	0.995	–	–	–
S. aureus Newman [4], first compound 1 µg/mL	≥ 1	≥ 1	≥ 1	–	–	–
S. aureus Newman [4], first compound 2 µg/mL	≥ 1	≥ 1	≥ 1	–	–	–
S. pneumoniae D39V [5], first compound 2 µg/mL	–	–	–	0.973	≥ 1	0.952
S. pneumoniae D39V [5], first compound 4 µg/mL	–	–	–	0.99	≥ 1	0.973
S. pneumoniae D39V [5], first compound 8 µg/mL	–	–	–	0.991	≥ 1	0.943

fitness, one replicate, main component drawn
Conditions	first compound 1 µg/mL	first compound 2 µg/mL	first compound 4 µg/mL	first compound 8 µg/mL
S. aureus Newman [4], partner 0.5 µg/mL	0.849	0.873	0.22	–
S. aureus Newman [4], partner 1 µg/mL	0.961	≥ 1	0.0961	–
S. aureus Newman [4], partner 2 µg/mL	0.849	0.792	0.0867	–
S. pneumoniae D39V [5], partner 0.15 µg/mL	–	≥ 1	≥ 1	≥ 1
S. pneumoniae D39V [5], partner 0.3 µg/mL	–	≥ 1	≥ 1	0.944

CC1=C(C(=O)O)N2C(=O)[C@@H](NC(=O)[C@H](N)c3ccccc3)[C@H]2SC1 [Cephalexin] + CC1=C\[C@@H](O)CC(=O)Cc2nc(co2)C(=O)N2CCC=C2C(=O)O[C@H](C(C)C)[C@H](C)/C=C/C(=O)NC\C=C\1 [Virginiamycin M1]
Conditions	Bliss interaction score
B. subtilis 168 [3]	0.0598
S. aureus DSM 20231	0.0651
S. aureus Newman [1]	0.023
S. pneumoniae D39V [2]	0.16

fitness
Conditions	first compound 0.125 µg/mL	first compound 0.25 µg/mL	first compound 0.5 µg/mL	first compound 1 µg/mL	first compound 4 µg/mL
B. subtilis 168 [6], partner 0.0625 µg/mL	0.966	0.944	0.955	–	–
B. subtilis 168 [6], partner 0.125 µg/mL	0.944	0.926	0.99	–	–
B. subtilis 168 [6], partner 0.25 µg/mL	0.983	0.911	0.989	–	–
S. aureus Newman [4], partner 0.0625 µg/mL	–	≥ 1	0.994	≥ 1	–
S. aureus Newman [4], partner 0.125 µg/mL	–	≥ 1	≥ 1	≥ 1	–
S. aureus Newman [4], partner 0.25 µg/mL	–	≥ 1	≥ 1	≥ 1	–
S. pneumoniae D39V [5], partner 2 µg/mL	–	–	–	0.663	0.0521

fitness, one replicate
Conditions	first compound 0.125 µg/mL	first compound 0.25 µg/mL	first compound 0.5 µg/mL	first compound 1 µg/mL	first compound 2 µg/mL	first compound 4 µg/mL
S. aureus Newman [4], partner 0.5 µg/mL	–	–	0.847	0.951	0.986	–
S. aureus Newman [4], partner 1 µg/mL	–	–	≥ 1	≥ 1	≥ 1	–
S. aureus Newman [4], partner 2 µg/mL	–	–	0.936	0.923	0.978	–
S. pneumoniae D39V [5], partner 0.15 µg/mL	–	–	–	0.934	0.646	0.0743
S. pneumoniae D39V [5], partner 0.3 µg/mL	–	–	–	0.885	0.628	0.0023
S. pneumoniae D39V [5], partner 0.5 µg/mL	0.967	0.964	≥ 1	0.562	0.316	0.338
S. pneumoniae D39V [5], partner 1 µg/mL	0.966	0.991	≥ 1	0.504	0.0366	0.0659
S. pneumoniae D39V [5], partner 2 µg/mL	0.954	≥ 1	≥ 1	–	–	–

CN(N=O)C(=O)N[C@@H](C=O)[C@@H](O)[C@H](O)[C@H](O)CO [Streptozotocin] + CN(C)c1cc(NC(=O)CNC(C)(C)C)c(O)c2c1C[C@H]1C[C@H]3[C@H](N(C)C)C(O)=C(C(N)=O)C(=O)[C@@]3(O)C(O)=C1C2=O [Tigecycline]
Conditions	Bliss interaction score
B. subtilis 168 [3]	-0.0405
S. aureus DSM 20231	0.0681
S. aureus Newman [1]	0.0493
S. pneumoniae D39V [2]	0.0675

fitness
Conditions	first compound 0.15 µg/mL	first compound 0.3 µg/mL	first compound 0.6 µg/mL	first compound 1.2 µg/mL	first compound 2.4 µg/mL	first compound 4.8 µg/mL
S. aureus Newman [4], partner 0.039 µg/mL	0.829	0.711	0.555	–	–	–
S. aureus Newman [4], partner 0.078 µg/mL	0.837	0.685	0.504	–	–	–
S. aureus Newman [4], partner 0.156 µg/mL	0.904	0.711	0.511	–	–	–
S. pneumoniae D39V [5], partner 0.65 µg/mL	–	–	–	0.934	0.965	0.973
S. pneumoniae D39V [5], partner 1.3 µg/mL	–	–	–	0.952	0.987	0.939
S. pneumoniae D39V [5], partner 2.6 µg/mL	–	–	–	0.964	0.948	0.956

fitness, B. subtilis 168 [6], one replicate
Conditions	partner 0.039 µg/mL	partner 0.078 µg/mL	partner 0.125 µg/mL	partner 0.156 µg/mL	partner 0.25 µg/mL	partner 0.5 µg/mL
first compound 0.15 µg/mL	0.936	0.975	0.958	0.877	0.892	0.921
first compound 0.3 µg/mL	≥ 1	≥ 1	0.995	0.907	0.836	0.86
first compound 0.6 µg/mL	≥ 1	0.956	0.961	0.99	0.83	0.904

CC[C@H]1OC(=O)[C@H](C)[C@@H](O[C@H]2C[C@@](C)(OC)[C@@H](O)[C@H](C)O2)[C@H](C)[C@@H](O[C@@H]2O[C@H](C)C[C@H](N(C)C)[C@H]2O)[C@](C)(O)C[C@@H](C)CN(C)[C@H](C)[C@@H](O)[C@]1(C)O [Azithromycin] + CC1=C(C(=O)O)N2C(=O)[C@@H](NC(=O)[C@H](N)c3ccccc3)[C@H]2SC1 [Cephalexin]
Conditions	Bliss interaction score
B. subtilis 168 [3]	0.0757
S. aureus DSM 20231	-0.0843
S. aureus Newman [1]	0.0763
S. pneumoniae D39V [2]	-0.0716

fitness
Conditions	partner 0.125 µg/mL	partner 0.25 µg/mL	partner 0.5 µg/mL	partner 1 µg/mL
B. subtilis 168 [6], first compound 0.25 µg/mL	0.856	0.936	0.899	≥ 1
B. subtilis 168 [6], first compound 0.5 µg/mL	0.823	0.845	0.849	0.867
B. subtilis 168 [6], first compound 1 µg/mL	0.543	–	–	–
S. aureus Newman [4], first compound 0.125 µg/mL	–	0.892	0.918	0.907
S. aureus Newman [4], first compound 0.25 µg/mL	–	0.893	0.915	0.913
S. aureus Newman [4], first compound 0.5 µg/mL	–	0.739	0.719	0.728
